Consider 32 compounds from patent US9089139B2, “Agri-horticultural pest control compositions comprising 4-(3-butynyl)aminopyrimidine derivatives” (SDS Biotech K. K., priority 2011, dated 2015).

Broadly, the melting point is the temperature of the solid-liquid transition. `CC(C)[Si](C#CCCNc1ncnc2sccc12)(C(C)C)C(C)C` came in with a melting point of 196 to 198 °C.

The compound `CC(C)(C)[Si](C)(C)C#CCCNc1ncnc2sccc12` returned a melting point of 190 to 192 °C. In the case of `C(#Cc1cncs1)CCNc1ncnc2sccc12` [Compound No. 61], the melting point was 156 to 158 °C. `C(#Cc1csc(-c2ccccc2)n1)CCNc1ncnc2sccc12` [Compound No. 76, 4-[4-(2-Phenylthiazol-4-yl)-3-butynylamino]thieno[2,3-d]pyrimidine]: the melting point was in the range of 134 to 136 °C.

`C(#Cc1ccccc1)CC(Nc1ncnc2ccccc12)c1ccccc1` (centres unmarked) [Compound No. 301, 4-[(1,4-diphenyl-3-butynyl)amino]quinazoline] registered a melting point of 141 to 143 °C. `Cc1cccc(C#CCCNc2ncnc3sccc23)c1` [compound 18] showed a melting point of 120 to 123 °C. Under `COc1ccc(C#CCCNc2ncnc3sccc23)cc1OC` [compound 24] stands 182 to 184 °C; under `FC(F)(F)c1cccc(C#CCCNc2ncnc3sccc23)c1` [compound 26], 123 to 125 °C. Turning to `FC(F)(F)c1cc(C#CCCNc2ncnc3sccc23)cc(C(F)(F)F)c1` [compound 28], the melting point lay in the range of 163 to 166 °C. On to `COC(=O)c1cccc(C#CCCNc2ncnc3sccc23)c1` [compound 30], for which the melting point lay within 163 to 166 °C. Compound `O=[N+]([O-])c1cccc(C#CCCNc2ncnc3sccc23)c1` [compound 39] had a melting point of 171 to 172 °C. For the compound `O=[N+]([O-])c1ccc(C#CCCNc2ncnc3sccc23)cc1` [compound 40], the melting point fell in the range of 184 to 185 °C.

The compound `Fc1ccc(C#CCCNc2ncnc3sccc23)c(F)c1` [compound 41] yielded a melting point of 177 to 178 °C. Next, `Fc1cccc(F)c1C#CCCNc1ncnc2sccc12` [compound 42]: 179 to 181 °C; `Fc1cc(C#CCCNc2ncnc3sccc23)cc(F)c1F` [compound 43]: 158 to 159 °C. Under `C(#Cc1cccnc1)CCNc1ncnc2sccc12` [compound 56] stands 138 to 140 °C; under `C(#Cc1ccncc1)CCNc1ncnc2sccc12` [compound 57], 140 to 141 °C. Next, `Cc1cc(C)nc(C#CCCNc2ncnc3sccc23)n1` [compound 59]: 112 to 113 °C; `C(#Cc1nccs1)CCNc1ncnc2sccc12` [compound 62]: 128 to 129 °C. Regarding `C(#Cc1cscn1)CCNc1ncnc2sccc12` [compound 63], the melting point was determined as 174 °C. Under `Cc1scnc1C#CCCNc1ncnc2sccc12` [compound 65] stands 148 to 150 °C; under `Cc1nc(C#CCCNc2ncnc3sccc23)cs1` [compound 66], 160 to 161 °C. Under `OCc1nc(C#CCCNc2ncnc3sccc23)cs1` [compound 70] stands 193 °C; under `CC(=O)OCc1nc(C#CCCNc2ncnc3sccc23)cs1` [compound 73], 128 to 129 °C.

`C(#Cc1csc(-c2ccco2)n1)CCNc1ncnc2sccc12` [compound 77] yielded a melting point of 53 to 55 °C.

For `C(#Cc1csc(-c2ccoc2)n1)CCNc1ncnc2sccc12` [compound 78], the melting point is 140 to 142 °C. In the case of `C(#Cc1csc(-c2ccsc2)n1)CCNc1ncnc2sccc12` [compound 80], the melting point was 55 to 56 °C. Next, `C(#Cc1csc(-c2cccnc2)n1)CCNc1ncnc2sccc12` [compound 81]: 175 to 177 °C; `C=C(C#CCCNc1ncnc2ccccc12)CO` [compound 92]: 139 °C; `C(#Cc1ccccc1)CCNc1ncnc2ccccc12` [compound 96]: 120 to 122 °C. Under `C=C(C)CCc1ccccc1C#CCCNc1ncnc2ccccc12` [compound 105] stands 92 to 94 °C; under `CSc1cccc(C#CCCNc2ncnc3ccccc23)c1` [compound 116], 141 to 142 °C.
